Experimental data published in patent US10359430B2, “Selective near-infrared optical imaging of necrotic cells and simultaneous cell fixing and counter staining with metallacrown complexes” (THE REGENTS OF THE UNIVERSITY OF MICHIGAN, priority 2015, dated 2019).
“Also recorded” adds a separate entry of the source.

Experiments:
HeLa cells [1] = assay: NIR epifluorescence microscopy of HeLa cells treated with N-acetyl cysteine; type: cell-based, Human; details: 150 μM complex 15 minutes
Method: Formation of extracellular vesicules is a result of cellular response on oxidative stress which indicates excessive production of ROS (Reactive oxygen species). In order to investigate if ROS are responsible for dual function of Yb^3+[Zn(II)MCpyzHA], HeLa cancer cells were treated with NAC (N-acetyl cysteine), which is a well known antioxidant that efficiently blocks production of reactive oxygen species (ROS).
Cells were seeded in a 8-well Lab Tek Chamber coverglass (Nunc, Dutsher S.A., Brumath, France) at a density of 6×10^4 cells/well and cultured at 37° C. in 5% humidified CO2 atmosphere.
After 24 hours, the cell culture media was removed. Some of the cells were washed twice with OPTI-MEM® media (room temperature), incubated with N-acetyl cysteine (NAC) for 15 minutes, washed twice with OPTI-MEM® media and incubated with 150 μM of Yb^3+[Zn(II)MCpyzHA] for 15 minutes.
After 24 hours, the cell culture media was removed. Some of the cells were washed twice with OPTI-MEM® media (room temperature), and incubated with 150 μM of Yb^3+[Zn(II)MCpyzHA] for 15 minutes. N-acetyl cysteine (NAC) was added, and the cells were incubated for another 30 minutes. The cells were washed twice with OPTI-MEM® media.

HeLa cells [2] = assay: Confocal microscopy of HeLa cells; type: cell-based, Human; details: 150 μM, 15 minutes, UV light (377 nm) 8 minutes, further 1 hour; λex 458 nm, λem 499-799 nm
MSC stem cells = details: 150 μM, 15 minutes, UV light (377 nm) 8 minutes, further 1 hour; λex 458 nm, λem 499-799 nm
Method: For these confocal microscopy experiments, the HeLa or MSC cells were prepared in the same way as for the epifluorescence microscopy experiments (see Example 1, Short incubation, UV light exposure #1 and #3). […] Complexes were excited with Argon laser at 458 nm and emission signal was collected from 499 nm to 799 nm. During this experiment, a 63× Plan-Apochromat objective was used (2× zoom).

[3] = Photostability stress tests; type: physicochemical; details: 150 μM in water and OPTI-MEM media, 5 hours of irradiation with 377 nm light
Method: Photostability stress tests of Yb^3+[Zn(II)MCpyzHA] (Yb λem=980 nm) and Nd^3+[Zn(II)MCpyzHA] (Nd λem=1064 nm) and the commercially available dye for necrotic cells (Propidium Iodide) were performed. The complexes (150 μM) or dye (50 μM) were dissolved in water and the complexes were also dissolved in OPTI-MEM® media. The MC solutions were exposed to 5 hours of UV radiation (377 nm). The propidium iodide solution was exposed to 5 hours of UV radiation (530 nm).

[4] = Photophysical parameters in OPTI-MEM media, cell supernatant and HeLa cells; type: physicochemical
Method: The Yb^3+[Zn(II)MCpyzHA] complexes were dissolved in OPTI-MEM® medium with 2% SVF (without cells) and were incorporated in HeLa cells, both with and without exposure to UV light. The results in are shown in FIG. 20, (A) (corrected and normalized excitation) and FIG. 20, (B) (corrected and normalized emission). […] The present inventors developed instrumentation in order to collect photophysical properties of MCs inside of cancer cells. They measured quantitative photophysical parameters (quantum yields and life times) inside of the cells with equipment which is usually adapted for measuring of (quantum yields and life times) in solids or in concentrated solutions.
The Yb^3+[Zn(II)MCpyzHA] complexes were collected together with cell supernatant (SN) and with HeLa cells treated with N-acetyl cysteine, both with and without exposure to UV light. For SN1 and cells1, incubation with NAC took place for 30 minutes, then the cells were washed, and incubation with Yb^3+[Zn(II)MCpyzHA] took place for 15 minutes. For SN2 and cells2, incubation with Yb^3+[Zn(II)MCpyzHA] took place for 15 minutes, and then NAC was added and incubation with NAC took place for 30 minutes. The results in are shown in FIGS. 20C (corrected and normalized excitation) and 20D (corrected and normalized emission). […]

[5] = tested on: MSC (Mesenchymal Stem Cells); details: 150 μM, 15 minutes, UV light (377 nm) 8 minutes, further 1 hour
Method: The MSC (Mesenchyml Stem Cells) cell line was obtained from University in Orleans, 13MTO Laboratory (Orleans, France). The as-received MSC cell line has been obtained from the bone marrow of rats. The MSC cell line was cultured in Minimum Essential Medium (MEM) supplemented with 10% heat-inactivated fetal bovine serum (FBS), 1% of L-glutamine (GlutaMAX) and 1% of streptomycin/penicillin antibiotics. The MSC were also seeded in a similar manner to the HeLa cells.
After 24 hours, the respective cell culture media was removed and the HeLa cells or MSC were incubated with the Yb^3+[Zn(II)MCpyzHA] complex according to one of the following procedures.
The MSC cells were incubated with a solution of 150 μM Yb^3+[Zn(II)MCpyzHA] complex in OPTI-MEM® media (supplemented with 2% of FBS at 37° C. in 5% CO2 atmosphere) for 15 minutes, illuminated with UV light (377 nm) for 8 minutes, and then were allowed to continue incubating for 1 hour.
Prior to epifluorescent imaging, the HeLa and the MSC cells were washed twice with OPTI-MEM® (room temperature) in order to remove any non-specifically bound Yb^3+[Zn(II)MCpyzHA] complex.

HeLa cells [6] = assay: NIR epifluorescence microscopy of HeLa cells (necrotic cell labelling, simultaneous staining and fixing); type: cell-based, Human; details: for Colocalization with propidium iodide: then 3 μM PI 5 minutes
[7] = No UV NAC (SN1*): cell supernatant, NAC 30 minutes, washed, then complex 15 minutes
[8] = No UV NAC (SN2*): cell supernatant, complex 15 minutes, then NAC 30 minutes
[9] = No UV NAC (in cells1*): NAC 30 minutes, washed, then complex 15 minutes
[10] = No UV NAC (in cells2*): complex 15 minutes, then NAC 30 minutes
[11] = No UV: After 5 h of incubation with HeLa cells without illumination
[12] = UV NAC (SN2*): cell supernatant, complex 15 minutes, then NAC 30 minutes
[13] = UV NAC (in cells2*): complex 15 minutes, then NAC 30 minutes
[14] = UV: After 5 h of incubation with HeLa cells with UV illumination (during 8 min)
[15] = 150 μM, 15 minutes, UV light (377 nm) 8 minutes, further 1 hour

- Photostability [3]: fully photostable
- Quantum yield ([4]; In HeLa cells): 2.14(6) · 10^−2%
- τ2 ([4]; In HeLa cells): 23.6(7) μs
- τ2 contribution ([4]; In HeLa cells): 100%
- Quantum yield [4, 7]: 1.08(1) · 10^−2%
- τ1 [4, 7]: 7.27(2) μs
- τ1 contribution [4, 7]: 91%
- τ2 [4, 7]: 50(2) μs
- τ2 contribution [4, 7]: 9%
- Quantum yield [4, 8]: 1.00(4) · 10^−2%
- τ1 [4, 8]: 6.72(3) μs
- τ1 contribution [4, 8]: 88%
- τ2 [4, 8]: 28.4(1) μs
- τ2 contribution [4, 8]: 12%
- τ1 [4, 9]: 7.5(4) μs
- τ1 contribution [4, 9]: 6%
- τ2 [4, 9]: 22.9(1) μs
- τ2 contribution [4, 9]: 94%
- τ1 [4, 10]: 7.3(1) μs
- τ1 contribution [4, 10]: 7%
- τ2 [4, 10]: 23.6(2) μs
- τ2 contribution [4, 10]: 93%
- Quantum yield [4, 11]: 1.52(3) · 10^−2%
- τ1 [4, 11]: 6.47(4) μs
- τ1 contribution [4, 11]: 75%
- τ2 [4, 11]: 21.6(8) μs
- τ2 contribution [4, 11]: 25%
- Quantum yield ([4]; OptiMEM): 1.25(1) · 10^−2%
- τ1 ([4]; OptiMEM): 6.45(5) μs
- τ1 contribution ([4]; OptiMEM): 89%
- τ2 ([4]; OptiMEM): 24(1) μs
- τ2 contribution ([4]; OptiMEM): 11%
- Quantum yield ([4]; OptiMEM-UV 1 h 30 min): 2.05(5) · 10^−2%
- τ1 ([4]; OptiMEM-UV 1 h 30 min): 7.03(3) μs
- τ1 contribution ([4]; OptiMEM-UV 1 h 30 min): 61%
- τ2 ([4]; OptiMEM-UV 1 h 30 min): 21.5(1) μs
- τ2 contribution ([4]; OptiMEM-UV 1 h 30 min): 39%
- Quantum yield [4, 12]: 1.06(5) · 10^−2%
- τ1 [4, 12]: 6.80(9) μs
- τ1 contribution [4, 12]: 75%
- τ2 [4, 12]: 23(1) μs
- τ2 contribution [4, 12]: 25%
- τ1 [4, 13]: 8.7(5) μs
- τ1 contribution [4, 13]: 9%
- τ2 [4, 13]: 23.2(1) μs
- τ2 contribution [4, 13]: 91%
- Quantum yield [4, 14]: 1.64(5) · 10^−2%
- τ1 [4, 14]: 6.51(8) μs
- τ1 contribution [4, 14]: 65%
- τ2 [4, 14]: 21(1) μs
- τ2 contribution [4, 14]: 35%
- Contribution of the long lifetime inside of HeLa cells ([4]; all experimental conditions): more than 90%
Compound: O=C([N-][O-])c1cnccn1.O=C([N-][O-])c1cnccn1.O=C([N-][O-])c1cnccn1.O=C([N-][O-])c1cnccn1.O=C([N-][O-])c1cnccn1.O=C([N-][O-])c1cnccn1.O=C([N-][O-])c1cnccn1.O=C([N-][O-])c1cnccn1.O=C([N-][O-])c1cnccn1.O=C([N-][O-])c1cnccn1.O=C([N-][O-])c1cnccn1.O=C([N-][O-])c1cnccn1.O=C([N-][O-])c1cnccn1.O=C([N-][O-])c1cnccn1.O=C([N-][O-])c1cnccn1.O=C([N-][O-])c1cnccn1.O=S(=O)([O-])C(F)(F)F.O=S(=O)([O-])C(F)(F)F.O=S(=O)([O-])C(F)(F)F.[Yb+3].[Zn+2].[Zn+2].[Zn+2].[Zn+2].[Zn+2].[Zn+2].[Zn+2].[Zn+2].[Zn+2].[Zn+2].[Zn+2].[Zn+2].[Zn+2].[Zn+2].[Zn+2].[Zn+2].c1ccncc1.c1ccncc1.c1ccncc1.c1ccncc1.c1ccncc1.c1ccncc1.c1ccncc1.c1ccncc1 [Yb^3+[Zn(II)MCpyzHA]]
- Internalization inside the cells, complex Incubation First (HeLa cells [1]; then NAC 30 minutes): do not show internalization
- NIR signal in cells, NAC Incubation First (HeLa cells [1]; NAC 15 minutes, wash, exposure time 400 ms): very good signal in NIR
- Intracellular location (confocal, visible ligand emission) (HeLa cells [2]): specifically located in nucleus as well as in cytoplasm
- Intracellular location (confocal, visible ligand emission) (MSC stem cells): specifically located in nucleus as well as in cytoplasm
- Integrity of the MC ([4]; cell culture media and cells, different experimental conditions): stays intact in cell culture media and in the cells
- Change of luminescent properties in media, cell supernatant or HeLa cells ([4]; with/without exposure to UV light): did not change in the cells; also recorded: did not change in cell supernatant or inside of the HeLa cells
- Function in MSC cells [5]: acting as an NIR dye and cell fixative
- Selectivity of labelling for necrotic cells (HeLa cells [6]; 45 μM, 15 minutes, no UV light exposure (also 150 μM, 12 hours)): going exclusively in necrotic cells
- Specificity of the dye for cell state (HeLa cells [6]; 150 μM complex and 3 μM propidium iodide together, UV light (377 nm) 5 minutes): specific for dead and apoptotic cells
- NIR staining of fixed HeLa cancer cells (cell compartments) (HeLa cells [6]; [15]): operates as a NIR stain for the nucleus as well as for the cytoplasm
- Shape and morphology of stained and fixed cells one month after the procedure (HeLa cells [6]; 150 μM, 15 minutes, UV light (377 nm) 8 minutes, further 1 hour, imaged one month later): maintained the same shape and morphology
- Colocalization with propidium iodide (HeLa cells [6]; [15]): colocalize in the same cell compartments
- Colocalization with propidium iodide (HeLa cells [6]; 150 μM, 12 hours, no UV light): colocalize in the same cell compartment
- Toxicity to the HeLa cell line (HeLa cells [6]; 150 μM, incubation during 12 hours, no UV light exposure): toxic
